Laboratory results taken from patent US11427575B2, “Antitumor compound for activating JWA gene and degrading HER2, preparation method thereof, and application thereof” (SIMCERE PHARMACEUTICAL CO., LTD., priority 2019, dated 2022).
Like-named read-outs stand apart in the source and are kept apart here.

How the values were obtained:
[1] = tested on: JWA protein; experiment: Western blot in HER2-positive breast cancer cells, JWA; assay type: cell-based, human; conditions: increasing concentration, 24 h
Procedure: (§1) The cells in the logarithmic growth phase were routinely digested, and transferred into 6-well plates at the cell density of 40%-50%. The cells were incubated with different concentrations of JAC1 for 24 h, followed by an addition of 0.1 mL of Radioimmunoprecipitation Assay Butter (RIPA, containing 0.5% phenylmethylsulfonyl fluoride (PMSF)) for protein extraction. After centrifugation at 12,000×g for 15 min, the supernatant was collected, and brought to a determination of protein concentration and a boil. Protein electrophoresis was performed with 10% polyacrylamide gel. The protein was transferred into the gel wells for 40 μg protein per well, migrated at 60 V for 30 min, and 90 V for 1.5-2 h. After gel electrophoresis, the protein was transferred by wet method from gel to a PVDF membrane, and blocked with 5% skim milk at room temperature for 1-2 h. The membrane was washed with Tris-Buffered Saline and Tween 20 (TBST, containing 0.1% Tween 20) three times for 5 min each, and incubated in the corresponding primary antibody overnight at 4° C. The membrane was then washed with the TBST (containing 0.1% Tween 20) three times for 5 min each, incubated in the secondary antibody at room temperature for 1-2 h, and washed with the TBST (containing 0.1% Tween 20) eight times for 5 min each. […]

[2] = tested on: SKBR3 cells; conditions: SKBR3, 1 and 10 μM, 10-15 d, vs control
Procedure: (§2) Two human breast cancer cell lines BT474 and SKBR3 were incubated in DMEM medium containing, respectively, 20% and 10% fetal bovine serum (FBS), conventional double-antibody, and were placed in a 37° C. incubator with 5% CO2. The BT474 and SKBR3 cells in the logarithmic growth phase were transferred into 6-well plates for 800 cells per well. After the cells adhered to the walls of the plates, the cells were cultured in the medium containing different concentrations (0, 1, and 10 μM) of JAC1, respectively. By observing the formation of each cell colony, the cells were continued to be cultured for 10-15 d, followed by removal of medium. After fixation with methanol and photographing, the number of the cell colonies (each containing more than 50 cells) was counted using the software ImageJ, and the computer program SPSS is used for statistical analysis.

[3] = tested on: BT474 cells; conditions: BT474, 1 and 10 μM, 10-15 d, vs control
Procedure: as §2

[4] = Serum biochemical indexes in tumor-bearing nude mice; conditions: particularly 100 mg/kg, vs blank control
Text: A model of nude mice subcutaneously transplanted with human breast cancer cells was built with reference to the method of Example 16. The laboratory mice that have been modeled were anesthetized to determine whether damage occurred to the major organs in the mouse body. Whole blood was collected from the anesthetized mice, and the serum was separated and used to detect a change in the serum biochemical indexes using an automatic biochemistry analyzer.

[5] = H&E staining, tumor-bearing nude mice
Text: A model of nude mice subcutaneously transplanted with human breast cancer cells was built with reference to the method of Example 16. The laboratory mice that have been modeled were anesthetized and euthanized to observe and determine whether damage occurred to the major organs of laboratory mice. The major organs tissues from the laboratory mice, such as heart, liver, spleen, lung, kidney, and brain, were fixed in formalin solution using conventional methods. After paraffin embedding and tissue sectioning, the thick tissue sections were stained with H&E to observe whether the organ tissues were normal in morphology.

[6] = tested on: HER2 protein; experiment: Western blot in HER2-positive breast cancer cells, HER2; assay type: cell-based, human; conditions: increasing concentration, 24 h
Procedure: as §1

[7] = tested on: BT474 human breast cancer cells; experiment: Tumor growth in nude mice subcutaneously transplanted with BT474 cells; assay type: in vivo, BALB/c nude mice; conditions: for tumor growth (tumor volume): vs blank control; for tumor weight / tumor weight/mouse body weight ratio: P<0.05
Procedure: (§3) BT474 human breast cancer cells in the logarithmic growth phase were suspended in ice-cold suspension buffer for a final concentration of 5×10^6/100 μL, followed by subcutaneous transplantations of the suspended cells into BALB/c nude mice. When the tumor grown up to 75-125 mm^3, the BALB/c nude mice were randomly divided into five equal groups, including a blank control group (Mock), a solvent control group (Vehicle), a 50 mg/kg JAC1 treatment group, a 100 mg/kg JAC1 treatment group, and a positive control group treated with Pacilitaxel and Trastuzumab (TH). Dose and administration: JAC1 was injected intraperitoneally into mice once daily; the dosage of Trastuzumab was 10 mg/kg injected intraperitoneally twice a week; the dosage of Pacilitaxel was 20 mg/kg injected intraperitoneally once a week. From the day of administration, mouse body weights and tumor diameters were measured every other 2 days, and the tumor volume was calculated using an equation. When the mice reached a humane endpoint at which the tumor volume increased to 2500-3000 mm^3, the research based on the mouse models was terminated and the laboratory mice were anesthetized and euthanized in a timely manner to alleviate animal suffering and perform the statistical analysis.

[8] = tested on: JWA protein; experiment: Laser confocal immunofluorescence in HER2-positive breast cancer cells, JWA; assay type: cell-based, human; conditions: immunofluorescence, 0, 1, 10 μM, 24 h
Procedure: The cells were inoculated into a 35 mm glass bottom dish, treated with different concentrations (0, 1, and 10 μM) of JAC1 for 24 h, fixed with methanol for 15 min, washed three times with PBST, blocked with normal sheep serum for 1 h, and incubated in primary antibody overnight at 4° C. The cells were then washed three times with PBST, incubated in fluorescent secondary antibody and 4′,6-diamidino-2-phenylindole (DAPI), and photographed using a laser confocal scanning microscopy.

[9] = tested on: HER2 protein; experiment: Western blot in BGC823 gastric cancer cells (JWA WT and JWA KO), HER2; assay type: cell-based, human; conditions: 10 μM, 48 h
Text: (§4) A HER2-positive BGC823 human gastric cancer cell line was established in which JWA gene was deleted using Crisp/cas9 technology. […] After protein extraction, western blotting technology was used to determine the expression levels of JWA and HER2 proteins in the wild-type cell line (JWA WT) and the JWA-knockout cell line (JWA KO).

[10] = tested on: HER2 protein; experiment: Western blot of subcutaneous BT474 tumors, HER2; assay type: in vivo, BALB/c nude mice; conditions: treatment group
Procedure: as §3, with “analysis. […]” for “analysis.”

[11] = tested on: JWA protein; conditions: 10 μM, 48 h
Text: as §4

COc1cccc2sc(Nc3nc4c(F)cccc4s3)nc12 [JAC1, 4-fluoro-N-(4-methoxybenzene (d)thiazole-2-group) benzene (d) thiazole-2-amine]
JWA protein level [1]: JWA protein level increased | colony-forming ability [2]: significantly reduce the colony-forming ability | colony-forming ability [3]: significantly reduce the colony-forming ability | alanine transaminase (ALT) [4]: significant decreases | aspartate transaminase (AST) [4]: significant decreases | creatine kinase (CK) [4]: significant decreases | creatine kinase isoenzyme (CKMB) [4]: significant decreases | superoxide dismutase (SOD) [4]: significantly increased | triglyceride (TG) [4]: significant decreases | morphology of major organs (heart, liver, spleen, lung, kidney, brain) [5]: no obvious anomalies were observed | HER2 protein level [6]: HER2 protein level decreases | tumor growth (tumor volume) ([7]; 50 mg/kg intraperitoneally once daily): obvious results at suppressing tumor growth | Tumor growth inhibition rate ([7]; 50 mg/kg ip once daily): 31.22% | tumor weight ([7]; 50 mg/kg ip once daily): reduced | tumor weight/mouse body weight ratio ([7]; 50 mg/kg ip once daily): decreased | tumor growth (tumor volume) ([7]; 100 mg/kg intraperitoneally once daily): obvious results at suppressing tumor growth | Tumor growth inhibition rate ([7]; 100 mg/kg ip once daily): 46.21% | tumor weight ([7]; 100 mg/kg ip once daily): reduced | tumor weight/mouse body weight ratio ([7]; 100 mg/kg ip once daily): decreased | JWA protein level [8]: JWA protein level increased | HER2 expression level ([9]; BGC823 JWA KO): no effect | HER2 expression ([9]; BGC823 JWA WT): repress HER2 expression | HER2 protein level in tumor [10]: repressed significantly | JWA expression level ([11]; BGC823 JWA KO): no effect | JWA protein level ([11]; BGC823 JWA WT): significantly increase JWA protein level
